These are literature values, as cited in article PMC9851200, “Multiparameter phenotypic screening for endogenous TFEB and TFE3 translocation identifies novel chemical series modulating lysosome function” (Autophagy, 2022).

What all share (set-up): method as in original PKIS2 published data
The target of data set [1] is T1, kinases (KINOMEscan panel) (Homo sapiens, UniProt P21709).
T1 sequence (P21709 26-976): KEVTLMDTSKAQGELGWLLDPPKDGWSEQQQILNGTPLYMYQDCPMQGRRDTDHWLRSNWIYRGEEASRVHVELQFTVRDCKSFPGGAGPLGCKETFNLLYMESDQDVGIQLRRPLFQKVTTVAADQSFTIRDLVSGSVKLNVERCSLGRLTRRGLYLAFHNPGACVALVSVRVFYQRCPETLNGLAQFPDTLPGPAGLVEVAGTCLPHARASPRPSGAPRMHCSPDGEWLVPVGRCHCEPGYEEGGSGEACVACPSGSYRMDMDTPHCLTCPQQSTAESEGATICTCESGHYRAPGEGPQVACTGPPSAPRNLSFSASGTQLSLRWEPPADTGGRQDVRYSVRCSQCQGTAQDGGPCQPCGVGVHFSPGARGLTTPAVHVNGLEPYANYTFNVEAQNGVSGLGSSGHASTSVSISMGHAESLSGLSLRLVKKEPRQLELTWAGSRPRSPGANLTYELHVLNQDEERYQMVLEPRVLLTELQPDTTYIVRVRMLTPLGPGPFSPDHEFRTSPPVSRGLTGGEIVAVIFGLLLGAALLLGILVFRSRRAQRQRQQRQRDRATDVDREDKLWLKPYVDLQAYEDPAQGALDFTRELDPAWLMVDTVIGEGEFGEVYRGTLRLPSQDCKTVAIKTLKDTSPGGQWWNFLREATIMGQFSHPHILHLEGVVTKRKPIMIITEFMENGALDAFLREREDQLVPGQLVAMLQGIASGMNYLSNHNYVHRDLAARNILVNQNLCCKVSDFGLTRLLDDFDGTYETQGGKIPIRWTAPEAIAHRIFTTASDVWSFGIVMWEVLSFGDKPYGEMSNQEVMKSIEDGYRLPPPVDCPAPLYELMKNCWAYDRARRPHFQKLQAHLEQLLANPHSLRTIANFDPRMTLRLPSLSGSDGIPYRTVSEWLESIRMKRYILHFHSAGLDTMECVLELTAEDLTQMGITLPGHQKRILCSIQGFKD
To be noted: EPHA1; Published KINOMEscan; ref original PKIS2 published data; cited from earlier work.

Data set [2] has as its target T2, kinases (KINOMEscan panel) (Homo sapiens, UniProt P57058).
T2 sequence (P57058 1-714): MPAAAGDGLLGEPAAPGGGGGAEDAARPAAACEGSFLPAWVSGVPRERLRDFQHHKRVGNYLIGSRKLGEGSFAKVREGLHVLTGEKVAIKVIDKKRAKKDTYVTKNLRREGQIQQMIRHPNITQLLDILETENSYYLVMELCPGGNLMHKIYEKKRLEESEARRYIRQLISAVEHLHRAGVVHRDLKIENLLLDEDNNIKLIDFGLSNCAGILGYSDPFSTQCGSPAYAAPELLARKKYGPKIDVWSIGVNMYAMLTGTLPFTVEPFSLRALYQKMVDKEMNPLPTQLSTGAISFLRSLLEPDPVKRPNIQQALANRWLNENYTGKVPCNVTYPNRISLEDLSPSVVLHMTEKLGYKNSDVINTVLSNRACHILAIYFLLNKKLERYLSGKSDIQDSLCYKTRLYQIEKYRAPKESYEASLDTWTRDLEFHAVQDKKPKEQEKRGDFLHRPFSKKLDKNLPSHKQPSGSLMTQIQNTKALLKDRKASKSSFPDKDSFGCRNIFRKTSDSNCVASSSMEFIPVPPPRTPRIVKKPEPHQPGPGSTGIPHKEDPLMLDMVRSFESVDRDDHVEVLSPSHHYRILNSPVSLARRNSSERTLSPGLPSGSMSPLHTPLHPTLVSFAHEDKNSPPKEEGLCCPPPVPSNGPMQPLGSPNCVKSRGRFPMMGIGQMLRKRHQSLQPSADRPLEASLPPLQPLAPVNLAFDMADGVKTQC
The note with it: kinase HUNK; Published KINOMEscan; ref original PKIS2 published data; cited from earlier work.

Data set [3] deals with T3, kinases (KINOMEscan panel) (Homo sapiens, UniProt Q8TBX8).
T3 sequence (Q8TBX8 1-421): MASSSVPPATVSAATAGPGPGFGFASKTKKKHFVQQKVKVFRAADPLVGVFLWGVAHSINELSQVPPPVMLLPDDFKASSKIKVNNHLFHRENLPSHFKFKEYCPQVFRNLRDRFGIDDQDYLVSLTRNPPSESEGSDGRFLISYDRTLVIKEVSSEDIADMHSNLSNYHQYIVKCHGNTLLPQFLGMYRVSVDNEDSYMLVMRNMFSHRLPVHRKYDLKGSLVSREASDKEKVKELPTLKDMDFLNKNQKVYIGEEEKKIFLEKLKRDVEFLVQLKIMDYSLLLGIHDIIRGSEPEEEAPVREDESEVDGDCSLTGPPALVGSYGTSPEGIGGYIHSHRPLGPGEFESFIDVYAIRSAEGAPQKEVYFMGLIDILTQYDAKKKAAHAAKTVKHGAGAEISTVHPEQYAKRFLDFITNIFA
The note with it: PIP4K2C; Published KINOMEscan; ref original PKIS2 published data; cited from earlier work.

Turning to `Cc1cccc(-c2nc(Nc3ccncc3)c3ccccc3n2)n1` [NK215], the “KINOMEscan EPHA1” value in data set [1] is reported as 23. For the same compound, in data set [2], the “KINOMEscan HUNK” value is 0. Besides, the “KINOMEscan PIP4K2C” value in data set [3] is on record as 18.
